Assay results reported in patent publication US8293513B2, “Histone deacetylase inhibitors” (Georgetown University, priority 2007, dated 2012).
pIC50: −log10 of the molar value. Read-outs that look alike come from different tables or passages of the source.

Columns and labels:
[1] = Emission and excitation spectra; assay type: physicochemical
Procedure: Measurement of the emission and excitation spectra for the compound of Example 1 was performed to confirm the corresponding range for fluorescent visualization in cancer cells and to confirm the fluorescent property of the compound.

[2] = target: T1, HDAC6 (Homo sapiens, UniProt Q9UBN7); assay: HDAC isoform inhibition assay (Fluor de Lys, purified protein); assay type: biochemical
T1 sequence (Q9UBN7 1-1215): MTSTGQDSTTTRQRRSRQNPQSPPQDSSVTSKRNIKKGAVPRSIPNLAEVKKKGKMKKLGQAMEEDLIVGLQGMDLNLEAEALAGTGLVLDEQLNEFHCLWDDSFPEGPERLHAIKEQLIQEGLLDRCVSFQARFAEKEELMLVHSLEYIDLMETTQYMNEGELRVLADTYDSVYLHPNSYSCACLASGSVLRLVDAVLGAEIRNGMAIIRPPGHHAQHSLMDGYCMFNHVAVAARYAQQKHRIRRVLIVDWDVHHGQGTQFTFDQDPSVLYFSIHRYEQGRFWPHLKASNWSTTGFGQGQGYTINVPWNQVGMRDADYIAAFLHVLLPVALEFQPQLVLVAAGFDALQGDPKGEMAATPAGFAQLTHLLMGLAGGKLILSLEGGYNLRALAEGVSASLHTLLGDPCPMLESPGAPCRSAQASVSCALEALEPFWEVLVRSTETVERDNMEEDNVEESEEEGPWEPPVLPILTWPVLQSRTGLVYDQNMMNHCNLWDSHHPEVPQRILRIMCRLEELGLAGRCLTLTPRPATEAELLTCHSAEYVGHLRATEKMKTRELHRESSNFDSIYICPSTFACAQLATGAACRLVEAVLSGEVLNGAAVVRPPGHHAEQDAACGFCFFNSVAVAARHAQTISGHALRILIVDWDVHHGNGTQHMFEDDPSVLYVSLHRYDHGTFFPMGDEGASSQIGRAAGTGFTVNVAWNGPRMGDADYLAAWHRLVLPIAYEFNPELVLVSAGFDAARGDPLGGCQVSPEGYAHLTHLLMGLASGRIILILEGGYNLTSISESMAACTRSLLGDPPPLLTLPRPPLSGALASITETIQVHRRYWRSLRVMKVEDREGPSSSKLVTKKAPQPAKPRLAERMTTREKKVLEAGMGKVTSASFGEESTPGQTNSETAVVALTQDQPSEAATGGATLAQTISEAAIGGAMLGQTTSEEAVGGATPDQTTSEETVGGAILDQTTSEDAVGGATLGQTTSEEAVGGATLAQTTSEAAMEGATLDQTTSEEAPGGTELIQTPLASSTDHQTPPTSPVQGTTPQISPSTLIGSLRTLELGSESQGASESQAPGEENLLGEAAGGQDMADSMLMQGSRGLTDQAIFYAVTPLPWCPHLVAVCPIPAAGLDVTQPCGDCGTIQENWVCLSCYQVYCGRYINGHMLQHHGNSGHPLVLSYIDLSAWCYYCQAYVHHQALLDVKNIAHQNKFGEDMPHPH

[3] = target: HDAC3 (Homo sapiens, UniProt O15379); assay: as above; assay type: biochemical
HDAC3, sequence (O15379 whole entry, species assumed): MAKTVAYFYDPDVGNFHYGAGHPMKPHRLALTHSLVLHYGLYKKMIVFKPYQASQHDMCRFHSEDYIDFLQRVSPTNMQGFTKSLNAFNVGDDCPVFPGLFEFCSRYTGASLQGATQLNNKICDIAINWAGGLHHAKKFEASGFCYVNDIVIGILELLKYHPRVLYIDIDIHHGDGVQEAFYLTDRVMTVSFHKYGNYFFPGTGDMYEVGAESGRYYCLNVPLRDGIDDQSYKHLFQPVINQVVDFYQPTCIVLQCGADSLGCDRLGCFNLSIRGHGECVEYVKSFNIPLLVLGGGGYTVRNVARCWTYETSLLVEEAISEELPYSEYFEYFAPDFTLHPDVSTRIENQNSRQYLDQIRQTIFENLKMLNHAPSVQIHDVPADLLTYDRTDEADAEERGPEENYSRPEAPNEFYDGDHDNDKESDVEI
HDAC3, sequence (O75376 395-489 partner limits assumed, species assumed): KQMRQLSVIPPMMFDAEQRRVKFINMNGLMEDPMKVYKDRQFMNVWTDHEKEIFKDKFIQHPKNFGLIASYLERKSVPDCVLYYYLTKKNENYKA

[4] = target: HeLa nuclear extracts (histone deacetylase); assay type: biochemical; details: pan-HDAC inhibition assay
Procedure: Reactions were stopped after 15 min with Fluor de Lys Developer. […] The reaction was performed in triplicate for each sample. Each point represents the mean±SD of replicates.

[5] = target: HDAC2 (Homo sapiens, UniProt Q92769); assay: HDAC isoform inhibition assay (Fluor de Lys, purified protein); assay type: biochemical
HDAC2, sequence (Q92769 whole entry, species assumed, canonical isoform): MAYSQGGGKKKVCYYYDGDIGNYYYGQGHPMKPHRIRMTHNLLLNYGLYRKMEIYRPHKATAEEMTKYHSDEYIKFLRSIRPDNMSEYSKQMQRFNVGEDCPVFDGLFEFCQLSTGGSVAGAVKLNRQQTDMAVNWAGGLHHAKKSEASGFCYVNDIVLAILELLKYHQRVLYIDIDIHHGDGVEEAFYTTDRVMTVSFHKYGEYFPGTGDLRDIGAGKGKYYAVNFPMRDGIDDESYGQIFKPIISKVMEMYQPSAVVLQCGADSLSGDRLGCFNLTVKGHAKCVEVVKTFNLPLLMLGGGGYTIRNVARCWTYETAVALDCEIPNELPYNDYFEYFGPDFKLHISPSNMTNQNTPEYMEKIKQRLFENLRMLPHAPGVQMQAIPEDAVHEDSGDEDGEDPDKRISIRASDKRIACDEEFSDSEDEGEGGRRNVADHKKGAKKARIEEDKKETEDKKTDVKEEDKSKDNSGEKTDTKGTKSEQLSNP

[6] = test system: LNCap cells; assay: Cell cycle distribution (propidium iodide, FACS); assay type: cell-based; details: 24 hours after adding the compound
Procedure: (§1) LNCap and PC-3 cells were incubated in the presence or absence of compound. The cells were harvested at the indicated time points after addition of compound then washed twice with cold phosphate-buffered saline. Cells (1-2×10^6) were resuspended in 0.5 ml of ice-cold phosphate-buffered saline, and single cell suspension was verified microscopically. The cell suspension was gradually mixed with ice-cold absolute ethanol to the final volume of 2.0 ml, and cooled on ice at least for 20 min before staining with propidium iodide. The cell cycle distributions were measured in a fluorescence-activated cell sorter from Becton Dickinson. DNA content was quantified using ModFit LT 3.0 software (Verity Software House, Inc.).

[7] = test system: PC-3 cells; assay: Cell cycle distribution (propidium iodide, FACS); assay type: cell-based; details: PC-3, 24 hours after adding the compound
Procedure: as §1

[8] = test system: A549 (lung cancer) cells; assay: Imaging of tubulin acetylation; assay type: cell-based; details: 20 μM, 60 minutes (FIG. 4), versus untreated control
Procedure: Images A, B, and C show the cells after treatment with the histone deacetylase inhibitor (20 μM) for 60 minutes. […] Image C is the DIC image, while image D is a merger of images A, B, and C.

[9] = test system: C42 (androgen-independent prostate cancer); assay: Cell growth inhibition (CellTiter 96 AQueous One, MTS); assay type: cell-based; details: C4-2; C42 cells, 48 hours; read-out: Proliferation IG50 C42
Procedure: (§2) The cell lines used were PC-3 (prostate cancer), C42 (androgen-independent prostate cancer), LNCap (androgen-dependent prostate cancer), SQ20B (squamous cell carcinoma), MCF7 (breast cancer) and MDA-231 (breast cancer).
(§3) Cells were seeded at 5,000 per well in […] of growing medium in 96-well tissue culture plates. At 24 hours after seeding, a solution of the compound or DMSO vehicle control were added to each well to a total volume of […] (three replicates per concentration), and incubated for 48 hours at 37° C. Growth inhibition was determined using CellTiter 96® AQueous One Solution Cell Proliferation according to manufacturer's instructions (Technical Bulletin: CellTiter 96® AQueous One Solution Cell Proliferation Assay. Instructions for Use of Products G3580, G3581 and G3582; Promega, Inc. Madison, Wis., Revised 4/2005), and the absorbance measured at 490 nm on a microplate reader. The CellTiter 96® AQueous One Solution Cell Proliferation Assay is a colorimetric method for determining the number of viable cells in proliferation, cytotoxicity or chemosensitivity assays and contains a tetrazolium compound [3-(4,5-dimethylthiazol-2-yl)-5-(3-carboxymethoxyphenyl)-2-(4-sulfophenyl)-2H-tetrazolium, inner salt; “MTS”] and an electron coupling reagent (phenazine ethosulfate; PES). The MTS tetrazolium compound (Owen's reagent) is bioreduced by cells into a colored formazan product that is soluble in tissue culture medium. Assays are performed by adding a small amount of the CellTiter 96® AQueous One Solution Reagent directly to culture wells, incubating for 1-4 hours and then recording the absorbance at 490 nm with a 96-well plate reader. The quantity of formazan product as measured by the absorbance at 490 nm is directly proportional to the number of living cells in culture.
(§4) The 50% growth inhibition (IG50) was calculated as the compound concentration required to reduce cell number by 50% compared with control.

[10] = test system: SQ20B (squamous cell carcinoma); assay: as above; assay type: cell-based; details: Homo sapiens; SQ20B cells, 48 hours; read-out: Proliferation IG50 SQ20B
Procedure: as §2, §3, §4

[11] = test system: LNCap (androgen-dependent prostate cancer); assay: as above; assay type: cell-based; details: Homo sapiens; LNCap cells, 48 hours; read-out: Proliferation IG50 LNCap
Procedure: as §2, §3, §4

[12] = test system: MDA-231 (breast cancer); assay: as above; assay type: cell-based; details: Homo sapiens, MDA-MB-231; MDA-231 cells, 48 hours; read-out: Proliferation IG50 MDA-231
Procedure: as §2, §3, §4

[13] = test system: PC-3 (prostate cancer); assay: as above; assay type: cell-based; details: Homo sapiens, PC3 cells, 48 hours, read-out: Proliferation IG50 PC3
Procedure: as §2, §3, §4

[14] = test system: MCF7 (breast cancer); assay: as above; assay type: cell-based; details: Homo sapiens; MCF7 cells, 48 hours; read-out: Proliferation IG50 MCF7
Procedure: as §2, §3, §4

[15] = test system: A549 cells; assay: Imaging of histone acetylation; assay type: cell-based; details: 20 μM, 60 minutes (FIG. 5), versus untreated control
Procedure: Images A, B, C and D show the cells after treatment with the histone deacetylase inhibitor (20 μM) for 60 minutes. […] Image C is the DIC image.

[16] = test system: DU145 cells; assay: Fluorescence imaging of compound localization in cells; assay type: cell-based, human; details: DU-145 cells, for 60 minutes (FIG. 2)
Procedure: (§5) Human prostate cancer cell lines PC-3 and DU145 cells were plated down onto glass slides at a density of 500,000 per slide and incubated overnight. […] The slides were then washed three times with phosphate-buffered saline. The cells were then fixed with a 4% solution of formaldehyde for ten minutes, washed four times with phosphate-buffered saline and mounted. For slides with nuclear staining, cells were treated with propidium iodide (1:1000) for 4 minutes after fixation, washed four times with PBS and mounted.
(§6) Propidium Iodide was imaged with an excitation wavelength of 535 and an emission wavelength of 617. Images were taken at 63×.

[17] = test system: PC-3 cells; assay: as above; assay type: cell-based, human; details: 20 μM
Procedure: as §5, §6

[18] = target: HDAC1 (Homo sapiens, UniProt Q13547); assay: HDAC isoform inhibition assay (Fluor de Lys, purified protein); assay type: biochemical
HDAC1, sequence (Q13547 whole entry, species assumed, canonical isoform): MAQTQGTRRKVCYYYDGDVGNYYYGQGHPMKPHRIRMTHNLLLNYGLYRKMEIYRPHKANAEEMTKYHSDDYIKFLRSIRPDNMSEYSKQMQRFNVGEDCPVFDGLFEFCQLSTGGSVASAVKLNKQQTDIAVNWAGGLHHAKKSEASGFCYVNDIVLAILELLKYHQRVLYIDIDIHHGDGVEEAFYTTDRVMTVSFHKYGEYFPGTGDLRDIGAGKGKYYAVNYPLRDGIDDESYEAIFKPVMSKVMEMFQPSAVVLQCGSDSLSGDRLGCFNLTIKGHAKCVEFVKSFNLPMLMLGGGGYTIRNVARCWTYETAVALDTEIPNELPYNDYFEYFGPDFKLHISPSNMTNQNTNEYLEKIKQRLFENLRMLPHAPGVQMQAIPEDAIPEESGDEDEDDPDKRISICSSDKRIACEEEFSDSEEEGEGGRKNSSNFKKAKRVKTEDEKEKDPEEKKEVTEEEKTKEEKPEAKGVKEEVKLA

[19] = target: T2, HDAC8 (Homo sapiens, UniProt Q9BY41); assay: biochemical
T2 sequence (Q9BY41 1-377): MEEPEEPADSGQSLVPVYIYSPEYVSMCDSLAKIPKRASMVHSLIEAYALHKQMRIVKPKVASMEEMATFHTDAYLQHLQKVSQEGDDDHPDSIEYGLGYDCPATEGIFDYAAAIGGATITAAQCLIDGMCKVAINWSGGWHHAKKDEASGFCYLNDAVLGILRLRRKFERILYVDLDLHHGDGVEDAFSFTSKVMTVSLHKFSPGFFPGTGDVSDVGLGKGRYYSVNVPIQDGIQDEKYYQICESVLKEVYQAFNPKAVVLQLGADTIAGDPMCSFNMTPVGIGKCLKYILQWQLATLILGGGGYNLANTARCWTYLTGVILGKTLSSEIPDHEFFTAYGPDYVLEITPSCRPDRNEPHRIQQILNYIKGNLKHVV

[20] = target: HDAC4 (Homo sapiens, UniProt P56524); details: PC3 cells, 1 μM, 24 hours (FIG. 6)
HDAC4, sequence (P56524 whole entry): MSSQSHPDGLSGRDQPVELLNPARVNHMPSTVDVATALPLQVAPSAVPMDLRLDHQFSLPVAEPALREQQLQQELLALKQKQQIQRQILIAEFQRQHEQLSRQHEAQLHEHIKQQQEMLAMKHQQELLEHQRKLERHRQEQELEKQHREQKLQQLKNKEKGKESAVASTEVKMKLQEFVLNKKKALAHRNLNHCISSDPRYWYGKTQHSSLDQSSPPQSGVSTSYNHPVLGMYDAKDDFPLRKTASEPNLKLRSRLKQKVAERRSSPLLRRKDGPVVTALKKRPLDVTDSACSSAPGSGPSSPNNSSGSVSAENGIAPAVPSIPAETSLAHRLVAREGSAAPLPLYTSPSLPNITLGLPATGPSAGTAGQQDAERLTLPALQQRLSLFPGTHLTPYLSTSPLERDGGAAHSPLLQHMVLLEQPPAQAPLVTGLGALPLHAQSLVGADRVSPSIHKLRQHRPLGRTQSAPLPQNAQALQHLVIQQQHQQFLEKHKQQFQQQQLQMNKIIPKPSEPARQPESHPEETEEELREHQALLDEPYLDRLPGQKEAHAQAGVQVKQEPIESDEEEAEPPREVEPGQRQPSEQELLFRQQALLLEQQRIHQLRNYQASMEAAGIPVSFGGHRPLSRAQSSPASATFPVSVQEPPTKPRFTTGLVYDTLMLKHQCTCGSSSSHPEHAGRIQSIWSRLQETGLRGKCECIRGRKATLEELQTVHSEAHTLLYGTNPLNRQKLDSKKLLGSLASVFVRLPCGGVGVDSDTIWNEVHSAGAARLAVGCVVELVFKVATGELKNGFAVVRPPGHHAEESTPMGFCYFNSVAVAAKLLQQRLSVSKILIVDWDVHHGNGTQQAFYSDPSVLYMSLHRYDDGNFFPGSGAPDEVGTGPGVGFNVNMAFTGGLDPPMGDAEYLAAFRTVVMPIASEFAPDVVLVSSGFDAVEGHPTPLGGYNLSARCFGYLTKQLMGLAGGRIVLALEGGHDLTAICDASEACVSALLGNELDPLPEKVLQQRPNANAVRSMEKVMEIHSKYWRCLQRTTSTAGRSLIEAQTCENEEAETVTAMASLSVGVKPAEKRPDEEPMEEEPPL
Procedure: Human prostate cancer PC3 cells were cultured in Dulbecco's Modified Eagle's Medium (DMEM) with 5% serum at 37° C. over night. […] Control cells were incubated in the absence of test compound.
After 24 hours, the cells were washed with phosphate-buffered saline (1×) one time, and fixed with 4% percent of paraformaldehyde for 15 min. Non specific binding was blocked with 10% normal goat serum in phosphate-buffered saline containing 0.2% tween-20 (sigma aldrich P7949) for 1 hour. Cells were treated with mouse monoclonal anti-HDAC4 antibody (Sigma Aldrich H0163) 1:200 dilution in 5% goat serum in PBS for 1 hour at room temperature. The cells were washed three times with phosphate buffered saline (1×). […] The cells were washed with phosphate-buffered saline (1×) three times. Vecta shield mounting medium for florescence with DIPA (Vector laboratory H-1200) were loaded on the cells and covered with cover glass. The cells were then treated with HDAC4 antibody to visualize HDAC4 and with 4′,6-diamidino-2-phenylindole (DAPI) to visualize the nuclei.
Fluorescence microscopy was used to observe the immunohistostaining results.

[21] = HeLa nuclear extracts (Table 2), read-out: HDAC IC50
[22] = HeLa nuclear extracts (Table 3), read-out: pan-HDAC IC50

Row | Structure (SMILES) | pIC50 [2] | pIC50 [3] | pIC50 [4, 21] | pIC50 [4, 22] | pIC50 [5] | Cell cycle distribution G1 [7] [%] | Cell cycle distribution G2 [7] [%] | Cell cycle distribution S [7] [%] | pIC50 [18] | further results
1 | CN(C)c1cccc2c(S(=O)(=O)NCCCCCC(=O)NO)cccc12 [Example 1, 6-(5-(Dimethylamino)naphthalene-1-sulfonamido)-N-hydroxyhexanamide] | 6.89 | 5.95 | 6.90 | 6.90 | 5.86 | 64.35 | 15.74 | 19.91 | 6.02 | Emiss (emission wavelength) [1]: 500 nm; Exc (excitation wavelength) [1]: 320 nm; Cell cycle distribution G1 [6]: 85.23%; Cell cycle distribution G2 [6]: 5.59%; Cell cycle distribution S [6]: 9.18%; Tubulin acetylation in the cytoplasm [8]: increased tubulin acetylation; pIC50 [9]: 8.72; pIC50 [10]: 8.19; pIC50 [11]: 8.91; pIC50 [12]: 7.91; pIC50 [13]: 8.81; pIC50 [14]: 8.04; Histone acetylation in the nucleus [15]: increased nuclear histone acetylation; Localization of compound fluorescence in cells [16]: seen fluorescing (green fluorescence) in the cytoplasm; Co-localization with nuclei stained with propidium iodide ([17]; PC3 cells, 60 min (FIG. 3)): does not localize to nuclei; Localization of compound fluorescence in cells ([17]; PC-3 cells, 60 minutes (FIG. 2)): present in the cytoplasm but not the nucleus of cells; pIC50 [19]: 5.54
2 | CN(C)c1cccc2c(S(=O)(=O)NCCCCC(=O)NO)cccc12 [Example 2] |  |  | 6.54 |  |  |  |  |  |  | 
3 | CN(C)c1cccc2c(S(=O)(=O)NCCCCCCC(=O)NO)cccc12 [Example 3] | 7.12 | 5.31 | 6.93 | 6.94 | 5.13 |  |  |  | 5.89 | 
4 | CN(C)c1cccc2c(S(=O)(=O)NCCCCCCCC(=O)NO)cccc12 [Example 4] |  |  | 6.68 |  |  |  |  |  |  | 
5 | O=C(CCCCCCC(=O)Nc1ccccc1)NO [SAHA, suberoylanilide hydroxamic acid, reference compound] |  |  |  |  |  | 72.28 | 13.39 | 14.33 |  | HDAC4 distribution between cytoplasm and nuclei [20]: traps HDAC4 in the cytoplasm of the cells
